The target in one experiment is SMARCA2 (Homo sapiens, UniProt P51531). The experiment can be described thus: HiBiT assay for protein degradation, Hela SMARCA2-HiBiT cells (A series).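 On SMARC A2 Hela HiBit Dmax (%): 24 h compound treatment.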 To be noted: for DC50: read-out: SMARC A2 Hela HiBit DC50; for Dmax: read-out: SMARC A2 Hela HiBit Dmax (%). Also on record: Hela cells were genetically modified via CRISPR/Cas9 to fuse HiBiT to the carboxy terminus of SMARCA2; host or cells: HeLa (CRISPR/Cas9 HiBiT knock-in). It is filed as cell-based. An outline of the steps:
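HeLa cells engineered by CRISPR/Cas9 to carry a HiBiT tag fused to the C-terminus of SMARCA2 (Promega CS302365) were grown in DMEM supplemented with FBS and penicillin-streptomycin. After treatment, remaining SMARCA2 protein was quantified with the Nano-Glo® HiBiT Lytic Detection Assay (Promega N3050), and curves were fitted in GraphPad Prism.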
A general note: The HiBiT peptide binds its large partner to form an active luciferase.

A further experiment addresses SMARCA4 (Homo sapiens, UniProt P51532). As to the kind of experiment: HiBiT assay for protein degradation, Hela SMARCA4-HiBiT cells (A series). It is filed as cell-based. Set-up: fuse HiBiT to the carboxy terminus of SMARCA2 (Promega CS302365) or SMARCA4 (Promega CS3023225); host or cells: HeLa (CRISPR/Cas9 HiBiT knock-in). To be noted: for DC50: read-out: SMARC A4 Hela HiBit DC50. An outline of the steps:
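HeLa cells engineered by CRISPR/Cas9 to carry a HiBiT tag fused to the C-terminus of SMARCA4 (Promega CS3023225) were grown in DMEM supplemented with FBS and penicillin-streptomycin. After compound exposure, remaining SMARCA4 protein was quantified using the Nano-Glo® HiBiT Lytic Detection Assay (Promega N3050), and curves were fitted in GraphPad Prism.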

The mark [1] stands for this setting: Hela SMARCA2-HiBiT cells, 24 hours treatment.
Where [2] appears, read: Hela SMARCA4-HiBiT cells, 24 hours treatment.
[3] abbreviates: Hela SMARCA4-HiBiT cells, 24 hours treatment, read-out: SMARC A4 Hela HiBit Dmax(%).
Where [4] appears, read: Hela SMARCA4-HiBiT cells, 24 hours treatment, read-out: SMARC A4 Hela HiBit Dmax.

Where two headings read alike, the source gives them in different places.

By DC50 is commonly meant the midpoint of the concentration-degradation curve. A word on the Dmax: it is the greatest extent of degradation seen.

Sequence of SMARCA4 (P51532 whole entry, the tested form may be a part): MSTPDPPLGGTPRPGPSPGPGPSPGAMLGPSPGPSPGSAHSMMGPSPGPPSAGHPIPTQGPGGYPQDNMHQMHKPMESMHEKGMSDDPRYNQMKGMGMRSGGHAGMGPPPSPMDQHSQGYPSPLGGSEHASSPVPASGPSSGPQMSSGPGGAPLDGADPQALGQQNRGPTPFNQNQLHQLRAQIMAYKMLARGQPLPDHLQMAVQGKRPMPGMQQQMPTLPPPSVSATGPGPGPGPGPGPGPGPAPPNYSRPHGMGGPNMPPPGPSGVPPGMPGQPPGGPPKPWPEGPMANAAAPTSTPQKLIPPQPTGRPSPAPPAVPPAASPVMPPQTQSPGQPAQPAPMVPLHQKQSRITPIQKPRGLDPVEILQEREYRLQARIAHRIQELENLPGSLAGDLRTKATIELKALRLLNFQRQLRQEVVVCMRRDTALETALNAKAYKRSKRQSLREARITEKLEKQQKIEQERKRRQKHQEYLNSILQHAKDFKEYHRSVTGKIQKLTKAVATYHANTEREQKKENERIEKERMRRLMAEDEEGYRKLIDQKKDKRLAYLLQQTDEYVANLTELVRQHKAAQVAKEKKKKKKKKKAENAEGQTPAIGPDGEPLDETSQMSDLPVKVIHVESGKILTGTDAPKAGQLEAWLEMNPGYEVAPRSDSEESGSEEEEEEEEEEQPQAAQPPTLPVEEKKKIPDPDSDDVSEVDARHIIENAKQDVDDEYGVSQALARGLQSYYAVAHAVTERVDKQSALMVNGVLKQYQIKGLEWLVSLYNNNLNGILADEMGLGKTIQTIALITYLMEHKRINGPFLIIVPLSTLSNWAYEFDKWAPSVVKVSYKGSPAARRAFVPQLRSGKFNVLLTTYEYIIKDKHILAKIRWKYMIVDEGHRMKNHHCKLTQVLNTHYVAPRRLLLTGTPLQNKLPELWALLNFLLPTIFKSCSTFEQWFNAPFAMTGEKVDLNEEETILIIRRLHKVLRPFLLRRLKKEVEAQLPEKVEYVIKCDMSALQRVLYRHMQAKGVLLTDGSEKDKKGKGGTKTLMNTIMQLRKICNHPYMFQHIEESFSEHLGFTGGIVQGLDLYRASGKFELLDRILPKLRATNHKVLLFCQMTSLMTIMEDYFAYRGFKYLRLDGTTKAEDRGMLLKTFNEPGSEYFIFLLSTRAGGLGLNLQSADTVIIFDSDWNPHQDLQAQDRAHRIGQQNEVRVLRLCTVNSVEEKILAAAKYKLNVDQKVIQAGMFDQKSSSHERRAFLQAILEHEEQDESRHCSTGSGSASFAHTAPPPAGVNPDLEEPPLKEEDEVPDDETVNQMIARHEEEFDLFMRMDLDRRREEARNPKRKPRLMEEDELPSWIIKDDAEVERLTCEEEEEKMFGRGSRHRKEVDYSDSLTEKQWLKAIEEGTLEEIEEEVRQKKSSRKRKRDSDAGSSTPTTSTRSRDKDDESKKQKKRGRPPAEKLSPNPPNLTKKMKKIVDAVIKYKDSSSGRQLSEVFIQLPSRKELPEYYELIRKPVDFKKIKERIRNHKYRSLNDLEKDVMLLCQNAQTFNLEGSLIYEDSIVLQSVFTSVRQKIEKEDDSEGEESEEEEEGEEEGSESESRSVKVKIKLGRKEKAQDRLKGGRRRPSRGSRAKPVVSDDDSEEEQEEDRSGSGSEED
Sequence of SMARCA2 (P51531 whole entry, the tested form may be a part): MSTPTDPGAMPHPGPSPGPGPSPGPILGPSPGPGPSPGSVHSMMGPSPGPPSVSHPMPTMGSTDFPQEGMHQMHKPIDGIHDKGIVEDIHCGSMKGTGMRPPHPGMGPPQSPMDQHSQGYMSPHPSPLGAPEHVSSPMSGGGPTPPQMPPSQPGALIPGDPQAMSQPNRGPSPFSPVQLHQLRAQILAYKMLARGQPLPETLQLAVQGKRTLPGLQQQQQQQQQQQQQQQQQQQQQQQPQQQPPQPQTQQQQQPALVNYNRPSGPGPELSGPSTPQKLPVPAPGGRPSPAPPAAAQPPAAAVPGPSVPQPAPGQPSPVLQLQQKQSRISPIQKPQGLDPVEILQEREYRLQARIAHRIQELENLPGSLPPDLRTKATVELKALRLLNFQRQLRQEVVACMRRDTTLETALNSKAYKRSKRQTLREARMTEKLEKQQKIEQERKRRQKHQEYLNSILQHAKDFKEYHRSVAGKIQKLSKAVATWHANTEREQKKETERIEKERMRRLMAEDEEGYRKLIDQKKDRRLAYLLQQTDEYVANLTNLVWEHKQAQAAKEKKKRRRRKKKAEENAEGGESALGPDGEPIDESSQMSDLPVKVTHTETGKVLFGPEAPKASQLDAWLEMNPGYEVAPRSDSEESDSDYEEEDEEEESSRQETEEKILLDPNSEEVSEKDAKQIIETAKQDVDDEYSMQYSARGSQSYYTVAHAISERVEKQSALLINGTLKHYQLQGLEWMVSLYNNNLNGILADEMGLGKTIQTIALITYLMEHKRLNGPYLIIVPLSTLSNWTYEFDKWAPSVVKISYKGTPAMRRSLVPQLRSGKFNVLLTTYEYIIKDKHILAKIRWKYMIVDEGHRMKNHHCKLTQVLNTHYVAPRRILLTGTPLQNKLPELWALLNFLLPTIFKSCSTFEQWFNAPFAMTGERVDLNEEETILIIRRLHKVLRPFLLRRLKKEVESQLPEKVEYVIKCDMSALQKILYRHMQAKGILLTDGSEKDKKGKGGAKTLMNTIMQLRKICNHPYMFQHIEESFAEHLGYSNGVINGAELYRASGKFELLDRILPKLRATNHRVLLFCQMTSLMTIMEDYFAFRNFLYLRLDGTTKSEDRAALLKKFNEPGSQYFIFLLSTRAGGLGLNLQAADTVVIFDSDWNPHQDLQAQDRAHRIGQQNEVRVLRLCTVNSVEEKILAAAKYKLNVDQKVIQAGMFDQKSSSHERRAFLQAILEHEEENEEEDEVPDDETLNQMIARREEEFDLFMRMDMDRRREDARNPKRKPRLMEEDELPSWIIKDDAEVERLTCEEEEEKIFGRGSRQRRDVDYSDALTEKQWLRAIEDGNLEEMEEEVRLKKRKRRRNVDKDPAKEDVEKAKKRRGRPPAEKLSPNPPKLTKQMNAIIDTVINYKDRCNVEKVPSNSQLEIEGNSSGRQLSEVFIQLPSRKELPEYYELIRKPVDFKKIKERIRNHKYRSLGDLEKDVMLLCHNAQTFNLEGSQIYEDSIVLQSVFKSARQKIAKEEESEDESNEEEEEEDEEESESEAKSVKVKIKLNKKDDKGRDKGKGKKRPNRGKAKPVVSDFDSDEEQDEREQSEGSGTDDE

On to `Cc1ncsc1-c1ccc(CNC(=O)[C@@H]2C[C@@H](O)CN2C(=O)[C@@H](n2cc([C@H]3CC[C@H](CN4CCC(c5ccc6c(c5)-n5c(nc(=O)c7c(Br)cccc75)C65CCCCC5)CC4)CC3)nn2)C(C)(C)C)cc1` [Compound A67, (2S,4R)-1-((S)-2-(4-((1r,4S)-4-((4-(4′-bromo-5′-oxo-5′H-spiro[cyclohexane-1,7′-indolo[1,2-a]quinazolin]-10′-yl)piperidin-1-yl)methyl)cyclohexyl)-1H-1,2,3-triazol-1-yl)-3,3-dimethylbutanoyl)-4-hydroxy-N-(4-(4-methylthiazol-5-yl)benzyl)pyrrolidine-2-carboxamide], for which the DC50 on SMARCA2 (setting [1]) and at SMARCA4 (setting [2]) was below 0.1 µM throughout. The values for the Dmax on SMARCA2 (setting [1]) and at SMARCA4 (setting [3]) were above 90% and 70 to 90%, respectively.
In the case of `Cc1ncsc1-c1ccc([C@H](CCCCCN2CCC(c3ccc4c(c3)C3(CCCCC3)c3nc(=O)c5c(Br)cccc5n3-4)CC2)NC(=O)[C@@H]2C[C@@H](O)CN2C(=O)[C@@H](NC(=O)C2(F)CC2)C(C)(C)C)cc1` [Compound A4, (2S,4R)—N—((S)-6-(4-(4′-bromo-5′-oxo-5′H-spiro[cyclohexane-1,7′-indolo[1,2-a]quinazolin]-9′-yl)piperidin-1-yl)-1-(4-(4-methylthiazol-5-yl)phenyl)hexyl)-1-((S)-2-(1-fluorocyclopropane-1-carboxamido)-3,3-dimethylbutanoyl)-4-hydroxypyrrolidine-2-carboxamide], the Dmax was above 90% at SMARCA2 (HeLa) and above 90% at SMARCA4 (HeLa, read-out: SMARC A4 Hela HiBit Dmax(%)). In addition, the DC50 on SMARCA2 (setting [1]) and at SMARCA4 (setting [2]) was below 0.1 µM each time.
Turning to `Cc1ccccc1-c1ccc([C@H](CN2CCOCC2)NC(=O)[C@@H]2C[C@@H](O)CN2C(=O)[C@@H](n2cc([C@H]3CC[C@H](CN4CCC(c5ccc6c(c5)-n5c(nc(=O)c7c(Cl)cccc75)C65CCCCC5)CC4)CC3)nn2)C(C)(C)C)cc1` [Compound A163, (2S,4R)-1-((S)-2-(4-((1r,4S)-4-((4-(4′-chloro-5′-oxo-5′H-spiro[cyclohexane-1,7′-indolo[1,2-a]quinazolin]-10′-yl)piperidin-1-yl)methyl)cyclohexyl)-1H-1,2,3-triazol-1-yl)-3,3-dimethylbutanoyl)-4-hydroxy-N—((R)-1-(2′-methyl-[1,1′-biphenyl]-4-yl)-2-morpholinoethyl)pyrrolidine-2-carboxamide], the DC50 at SMARCA2 (setting [1]) was below 0.01 µM; on SMARCA4 (setting [2]), 0.1 to 1 µM. The Dmax on SMARCA2 (setting [1]) was above 90%; at SMARCA4 (setting [4]) it was 50 to 69%.
For `Cc1ncsc1-c1ccc([C@@H](NC(=O)[C@@H]2C[C@@H](O)CN2C(=O)[C@@H](n2cc(C3CC3)nn2)C(C)(C)C)C(=O)N2CCC(N3CCC(c4ccc5c(c4)-n4c(nc(=O)c6c(Br)cccc64)C54CCCCC4)CC3)CC2)cc1` [Compound A138, (2S,4R)—N—((R)-2-(4-(4′-bromo-5′-oxo-5′H-spiro[cyclohexane-1,7′-indolo[1,2-a]quinazolin]-10′-yl)-[1,4′-bipiperidin]-1′-yl)-1-(4-(4-methylthiazol-5-yl)phenyl)-2-oxoethyl)-1-((S)-2-(4-cyclopropyl-1H-1,2,3-triazol-1-yl)-3,3-dimethylbutanoyl)-4-hydroxypyrrolidine-2-carboxamide], the DC50 on SMARCA2 (setting [1]) and on SMARCA4 (setting [2]) was below 0.01 µM throughout. The Dmax at SMARCA2 (setting [1]) and at SMARCA4 (setting [4]) was above 90% in each case.
As for `Cc1ncsc1-c1ccc([C@H](CN2CCOCC2)NC(=O)[C@@H]2C[C@@H](O)CN2C(=O)[C@@H](n2cc([C@H]3CC[C@H](CN4CCC(c5ccc6c(c5)-n5c(nc(=O)c7c(Cl)cccc75)C65CCCCC5)CC4)CC3)nn2)C(C)(C)O)cc1` [Compound A158, (2S,4R)-1-((S)-2-(4-((1r,4S)-4-((4-(4′-chloro-5′-oxo-5′H-spiro[cyclohexane-1,7′-indolo[1,2-a]quinazolin]-10′-yl)piperidin-1-yl)methyl)cyclohexyl)-1H-1,2,3-triazol-1-yl)-3-hydroxy-3-methylbutanoyl)-4-hydroxy-N-((R)-1-(4-(4-methylthiazol-5-yl)phenyl)-2-morpholinoethyl)pyrrolidine-2-carboxamide], the DC50 at SMARCA2 (setting [1]) was below 0.01 µM; on SMARCA4 (setting [2]), above 1 µM. The Dmax is above 90% on SMARCA2 (setting [1]) and 50 to 69% on SMARCA4 (setting [4]).
Take `Cc1ncsc1-c1ccc([C@H](CN2CCOCC2)NC(=O)[C@@H]2C[C@@H](O)CN2C(=O)[C@@H](NC(=O)[C@H]2CC[C@H](CN3CCC(c4ccc5c(c4)C4(CCCCC4)c4nc(=O)c6c(Br)cccc6n4-5)CC3)CC2)C(C)(C)C)cc1` [Compound A16, (2S,4R)-1-((S)-2-((1r,4S)-4-((4-(4′-bromo-5′-oxo-5′H-spiro[cyclohexane-1,7′-indolo[1,2-a]quinazolin]-9′-yl)piperidin-1-yl)methyl)cyclohexane-1-carboxamido)-3,3-dimethylbutanoyl)-4-hydroxy-N—((R)-1-(4-(4-methylthiazol-5-yl)phenyl)-2-morpholinoethyl)pyrrolidine-2-carboxamide]: the DC50 was below 0.1 µM on SMARCA2 (setting [1]) and 0.501 to 1 µM at SMARCA4 (setting [2]). The Dmax at SMARCA2 (setting [1]) was above 90%; on SMARCA4 (setting [3]) it was 50 to 69%.
Take `Cc1ncsc1-c1ccc([C@H](CN2CCN(C)CC2)NC(=O)[C@@H]2C[C@@H](O)CN2C(=O)[C@@H](n2cc([C@H]3CC[C@H](CN4CCC(c5ccc6c(c5)-n5c(nc(=O)c7c(Cl)cccc75)C65CCCCC5)CC4)CC3)nn2)C(C)(C)C)cc1` [Compound A85, (2S,4R)-1-((S)-2-(4-((1r,4S)-4-((4-(4′-chloro-5′-oxo-5′H-spiro[cyclohexane-1,7′-indolo[1,2-a]quinazolin]-10′-yl)piperidin-1-yl)methyl)cyclohexyl)-1H-1,2,3-triazol-1-yl)-3,3-dimethylbutanoyl)-4-hydroxy-N—((R)-2-(4-methylpiperazin-1-yl)-1-(4-(4-methylthiazol-5-yl)phenyl)ethyl)pyrrolidine-2-carboxamide]: the 50% degradation concentration (DC50) was below 0.01 µM at SMARCA2 (setting [1]) and 0.01 to 0.1 µM at SMARCA4 (setting [2]). The figures for the Dmax on SMARCA2 (setting [1]) and at SMARCA4 (setting [4]) were above 90% and 50 to 69%, respectively.
Consider `Cc1ncsc1-c1ccc([C@H](CN2CC(C)(O)C2)NC(=O)[C@@H]2C[C@@H](O)CN2C(=O)[C@@H](n2cc([C@H]3CC[C@H](CN4CCC(c5ccc6c(c5)-n5c(nc(=O)c7c(Cl)cccc75)C65CCCCC5)CC4)CC3)nn2)C(C)(C)C)cc1` [Compound A71, (2S,4R)-1-((S)-2-(4-((1r,4S)-4-((4-(4′-chloro-5′-oxo-5′H-spiro[cyclohexane-1,7′-indolo[1,2-a]quinazolin]-10′-yl)piperidin-1-yl)methyl)cyclohexyl)-1H-1,2,3-triazol-1-yl)-3,3-dimethylbutanoyl)-4-hydroxy-N—((R)-2-(3-hydroxy-3-methylazetidin-1-yl)-1-(4-(4-methylthiazol-5-yl)phenyl)ethyl)pyrrolidine-2-carboxamide], for which the values for the DC50 at SMARCA2 (setting [1]) and on SMARCA4 (setting [2]) were below 0.1 µM and above 1 µM, respectively. The Dmax is above 90% on SMARCA2 (setting [1]) and 50 to 69% at SMARCA4 (setting [3]).
For the compound `Cc1ncsc1-c1ccc([C@H](CC(=O)O)NC(=O)[C@@H]2C[C@@H](O)CN2C(=O)[C@@H](n2cc([C@H]3CC[C@H](CN4CCC(c5ccc6c(c5)-n5c(nc(=O)c7c(Cl)cccc75)C65CCCCC5)CC4)CC3)nn2)C(C)(C)C)cc1` [Compound A146, (S)-3-((2S,4R)-1-((S)-2-(4-((1r,4S)-4-((4-(4′-chloro-5′-oxo-5′H-spiro[cyclohexane-1,7′-indolo[1,2-a]quinazolin]-10′-yl)piperidin-1-yl)methyl)cyclohexyl)-1H-1,2,3-triazol-1-yl)-3,3-dimethylbutanoyl)-4-hydroxypyrrolidine-2-carboxamido)-3-(4-(4-methylthiazol-5-yl)phenyl) propanoic acid], the values for the DC50 at SMARCA2 (setting [1]) and at SMARCA4 (setting [2]) were 0.01 to 0.1 µM and above 1 µM, respectively. Further, the Dmax was 70 to 90% on SMARCA2 (setting [1]) and below 50% on SMARCA4 (setting [4]).
The like results for `Cc1ncccc1-c1ccc([C@H](CN2CCOCC2)NC(=O)[C@@H]2C[C@@H](O)CN2C(=O)[C@@H](n2cc([C@H]3CC[C@H](CN4CCC(c5ccc6c(c5)-n5c(nc(=O)c7c(Cl)cccc75)C65CCCCC5)CC4)CC3)nn2)C(C)(C)C)cc1` [Compound A174, (2S,4R)-1-((S)-2-(4-((1r,4S)-4-((4-(4′-chloro-5′-oxo-5′H-spiro[cyclohexane-1,7′-indolo[1,2-a]quinazolin]-10′-yl)piperidin-1-yl)methyl)cyclohexyl)-1H-1,2,3-triazol-1-yl)-3,3-dimethylbutanoyl)-4-hydroxy-N—((R)-1-(4-(2-methylpyridin-3-yl)phenyl)-2-morpholinoethyl)pyrrolidine-2-carboxamide] were, in that order, below 0.01 µM, above 1 µM, above 90% and below 50%.

For the origin of these results see patent US20260092071A1, “COMPOUNDS AND COMPOSITIONS AS SMARCA2/4 DEGRADERS AND USES THEREOF” (REGENTS OF THE UNIVERSITY OF MICHIGAN, priority 2022, published 2026).
